Measured values reported in paper PMC8922279, “Identification of β-Lactams Active against Mycobacterium tuberculosis by a Consortium of Pharmaceutical Companies and Academic Institutions” (ACS Infectious Diseases, 2022).
Where two headings read alike, the source gives them in different places.

Experiments:
[1] = tested on: Mtb H37Rv; assay: MIC90 against replicating (R) Mtb H37Rv, with or without clavulanate; format: cell-based, Mycobacterium tuberculosis; conditions: Table S4; for Mtb H37Rv R + CLAV (MIC90): clavulanate 4 μg/mL; for Mtb H37Rv R (MIC90): no clavulanate
[2] = tested on: Mtb H37Rv; assay: MIC90 against nonreplicating (NR, 4-stress) Mtb H37Rv, with or without clavulanate; format: cell-based, Mycobacterium tuberculosis; conditions: 4-stress nonreplicating, Table S4; for Mtb H37Rv NR + CLAV (MIC90): clavulanate 4 μg/mL; for Mtb H37Rv NR (MIC90): no clavulanate
[3] = tested on: E. coli; assay: Microbial spectrum, E. coli; format: cell-based, Escherichia coli; conditions: clavulanate 4 μg/mL; Table S4
[4] = tested on: P. aeruginosa; assay: Microbial spectrum, P. aeruginosa; format: cell-based, Pseudomonas aeruginosa; conditions: clavulanate 4 μg/mL; Table S4
[5] = tested on: S. aureus; assay: Microbial spectrum, S. aureus; format: cell-based, Staphylococcus aureus; conditions: clavulanate 4 μg/mL; Table S4
[6] = tested on: C. albicans; assay: Microbial spectrum, C. albicans; format: cell-based, Candida albicans; conditions: no clavulanate; Table S4
[7] = tested on: HepG2 cells; assay: Cytotoxicity against HepG2 cells (CellTiter-Glo); format: cell-based, human; conditions: Table S4
Protocol: Compounds were tested for cytotoxicity against HepG2 cells as previously described.[48],[69],[70] Briefly, cells were exposed to compounds for 48–72 h, and viability was measured using CellTiter-Glo (Promega).

[8] = tested on: wild-type Mtb H37Rv; format: in vivo, 129sv DHP-1 knockout mice; conditions: for Log10 CFU per mouse (lungs), Mean: 50 mg/kg sc bid + clavulanate 100 mg/kg po bid, days 9-15, lungs day 16, untreated day 16 mean 9.1
[9] = tested on: Caco-2 cells
[10] = 300 mg/kg sc, uninfected DHP-1 mice
[11] = female, 129sv DHP-1 knockout, mouse, in vivo
[12] = in vivo; conditions: female, CD-1, mouse
[13] = in vivo; conditions: DHP-1 knockout, mouse, sc, 300 mg/kg
[14] = in vivo; conditions: female, 129sv DHP-1 knockout, mouse, sc, 50 mg/kg
[15] = physchem; conditions: simulated gi fluid, pH 6.5, FaSSIF Stability, % remaining
[16] = physchem; conditions: simulated gi fluid, pH 1.2
[17] = in vitro; conditions: male, CD-1, mouse, plasma, Plasma stability % Remaining
[18] = in vitro; conditions: SD, rat, plasma, Plasma stability % Remaining
[19] = in vitro; conditions: beagle, dog, plasma
[20] = in vitro; conditions: monkey, plasma
[21] = in vitro; conditions: human, plasma, Plasma stability % Remaining
[22] = in vitro; conditions: human; for Papp A→B at 120 min, 3 μM / Papp B→A at 120 min, 3 μM: Caco-2, pH 7.4
[23] = in vitro; conditions: cynomolgus monkey, plasma, pH 7.4
[24] = in vitro; conditions: beagle, dog, plasma, pH 7.4
[25] = in vitro; conditions: CD-1, mouse, plasma, pH 7.4, % bound to plasma
[26] = in vitro; conditions: SD, rat, plasma, pH 7.4, % bound to plasma
[27] = in vitro; conditions: human, plasma, pH 7.4, % bound to plasma
[28] = Caco-2, pH 7.4, Caco-2 Mean Recovery % A to B
[29] = Caco-2, pH 7.4, Caco-2 Mean Recovery % B to A

For `CN(C)C(=S)SCC1=C(C(=O)O)N2C(=O)[C@@H](NC(=O)Cc3cccs3)[C@H]2SC1` [TBBL-0000009], the Mtb H37Rv R + CLAV (MIC90) [1] was 4 µM, the Mtb H37Rv R (MIC90) [1] was 8 µM and the Mtb H37Rv NR + CLAV (MIC90) [2] was greater than 100 µM. For the same compound, the Mtb H37Rv NR (MIC90) [2] was greater than 100 µM, the E.coli R + CLAV (MIC90) [3] was greater than 100 µM and the P.aeruginosa R + CLAV (MIC90) [4] was greater than 100 µM. The S.aureus R + CLAV (MIC90) [5] was 1 µM, the C.albicans R (MIC90) [6] was greater than 100 µM and the HepG2 LD50 [7] was 6.6 µM. For the same compound, the “Log10 CFU per mouse (lungs), Mean” value [8] was 8.7 Log10 CFU, the “reduction of lung CFU compared to untreated control mice” value ([8]; mouse, in vivo) was roughly 0.4 log10 and the “Caco-2 Rank Papp” value [9] was “Moderate”. It also gave a Tlast [10] of 4.0 h, a Tlast [11] of 6.0 h and an AUC(0-t) ([12]; iv, 5 mg/kg) of 20300 ng·h/mL. For the same compound, the Vd ([12]; iv, 5 mg/kg) was 0.18 L/kg, the clearance ([12]; iv, 5 mg/kg) was 4.25 mL/min/kg and the half-life ([12]; iv, 5 mg/kg) was 30 min. The k el ([12]; iv, 5 mg/kg) was 0.000389 s⁻¹, the AUC(0-t) ([12]; po, 25 mg/kg) was 1360 ng·h/mL and the bioavailability ([12]; po, 25 mg/kg) was 1.33%. It also gave an AUC(0-t) [13] of 8810 ± 675 ng·h/mL, a Cmax [13] of 2650 ± 266 ng/mL and a Tmax [13] of 120 to 240 min. For the same compound, the AUC(0-t) [14] was 975 ng·h/mL, the Cmax [14] was 380 ng/mL and the Tmax [14] was 30 min. The remaining at 6 h, 10 μM [15] was 85.3%, the remaining at 24 h, 10 μM [15] was 90.9% and the remaining at 1 h, 10 μM [16] was 31.7%. The remaining at 24 h, 10 μM [16] was 9.96%, the remaining at 2 h, 2 μM [17] was 93% and the remaining at 2 h, 2 μM [18] was 95.8%. For the same compound, the remaining at 2 h, 2 μM [19] was 104%, the remaining at 2 h, 2 μM [20] was 133% and the remaining at 2 h, 2 μM [21] was 97.9%. The Papp A→B at 120 min, 3 μM [22] was less than 0.5 ×10⁻⁶ cm/s, the Papp B→A at 120 min, 3 μM [22] was less than 0.43 ×10⁻⁶ cm/s and the recovery at 120 min, 3 μM [22, 28] was less than 98.3%. The recovery at 120 min, 3 μM [22, 29] was less than 103%, the fraction unbound at 4 h, 2 μM [23] was 0.047 and the fraction unbound at 4 h, 2 μM [24] was 0.084. It also gave a fraction unbound at 4 h, 2 μM [25] of 0.095, a fraction unbound at 4 h, 2 μM [26] of 0.022 and a fraction unbound at 4 h, 2 μM [27] of 0.034.
`O=C(CCCC(NC(=O)c1ccc(Cl)cc1Cl)C(=O)O)N[C@@H]1C(=O)N2C(C(=O)O)=C(CSc3cccc[n+]3[O-])CS[C@H]12` (some centres unmarked) [TBBL-0000552] showed a Mtb H37Rv R + CLAV (MIC90) [1] of 2.9 µM, a Mtb H37Rv R (MIC90) [1] of 2.8 µM and a Mtb H37Rv NR + CLAV (MIC90) [2] of 2.1 µM. For the same compound, the Mtb H37Rv NR (MIC90) [2] was 1.9 µM, the E.coli R + CLAV (MIC90) [3] was 92.6 µM and the P.aeruginosa R + CLAV (MIC90) [4] was greater than 100 µM. It also gave a S.aureus R + CLAV (MIC90) [5] greater than 100 µM, a C.albicans R (MIC90) [6] greater than 100 µM and a HepG2 LD50 [7] of 74.3 µM. For the same compound, the “Log10 CFU per mouse (lungs), Mean” value [8] was 9.4 Log10 CFU, the “Caco-2 Rank Papp” value [9] was “Low” and the Tlast [10] was 4.0 h. For the same compound, the Tlast [11] was 3.0 h, the AUC(0-t) ([12]; iv, 5 mg/kg) was 7570 ng·h/mL and the Vd ([12]; iv, 5 mg/kg) was 0.74 L/kg. For the same compound, the clearance ([12]; iv, 5 mg/kg) was 11 mL/min/kg, the half-life ([12]; iv, 5 mg/kg) was 46.8 min and the k el ([12]; iv, 5 mg/kg) was 0.000247 s⁻¹. For the same compound, the AUC(0-t) ([12]; po, 25 mg/kg) was 42 ng·h/mL, the bioavailability ([12]; po, 25 mg/kg) was 0.11% and the AUC(0-t) [13] was 61900 ± 24900 ng·h/mL. The Cmax [13] was 29900 ± 11000 ng/mL, the Tmax [13] was 60 to 120 min and the AUC(0-t) [14] was 3660 ng·h/mL. It also gave a Cmax [14] of 6190 ng/mL, a Tmax [14] of 30 min and a remaining at 6 h, 10 μM [15] of 111%. It also gave a remaining at 24 h, 10 μM [15] of 106%, a remaining at 1 h, 10 μM [16] of 105% and a remaining at 24 h, 10 μM [16] of 61.5%. For the same compound, the remaining at 2 h, 2 μM [17] was 89.4%, the remaining at 2 h, 2 μM [18] was 77.8% and the remaining at 2 h, 2 μM [19] was 77.9%. It also gave a remaining at 2 h, 2 μM [20] of 119%, a remaining at 2 h, 2 μM [21] of 78.6% and a Papp A→B at 120 min, 3 μM [22] of less than 0.43 ×10⁻⁶ cm/s. It also gave a Papp B→A at 120 min, 3 μM [22] of 0.38 ×10⁻⁶ cm/s, a recovery at 120 min, 3 μM [22, 28] of less than 106% and a recovery at 120 min, 3 μM [22, 29] of 123%. The fraction unbound at 4 h, 2 μM [23] was 0.198, the fraction unbound at 4 h, 2 μM [24] was 0.417 and the fraction unbound at 4 h, 2 μM [25] was 0.439. The fraction unbound at 4 h, 2 μM [26] was 0.109 and the fraction unbound at 4 h, 2 μM [27] was 0.143.
